Key:
[1] = test system: Gram-positive isolates, including MRSA; assay: MIC against Gram-positive isolates / SSTI pathogens; assay type: cell-based; settings: FU assessment
[2] = Phase II SSTI trial: adverse events; assay type: in vivo, human
Method: Each patient who received at least one dose of study drug (ITT population) was evaluated for drug safety through monitoring of adverse events (AE), including abnormal clinical laboratory test results and vital signs. AE were rated by the investigator as to their severity (mild, moderate, severe, life-threatening), and by the relationship to the study drug (not related, unlikely related, possibly related, or probably related).

HSA = HSA (Homo sapiens, UniProt P02768); assay: MALDI-TOF mass spectrometry of protein-dalbavancin complexes; assay type: binding; settings: very high dalbavancin:protein ratios (1:2, 1:10)
Method: The samples were prepared for analysis using the dried droplet technique. Spectra were obtained on a BRUKER FLEX III, tof mass spectrometer previously tuned and calibrated using standard bovine serum albumin, acquiring and averaging spectra generated by 200 laser shots. Matrix: 9 parts of DHB-9 (2,5-dihydroxy-benzoic acid) saturated in acetonitrile/H2O (50:50), 1 part of sinapinic acid saturated in acetonitrile/H2O (50:50). 0.5 μl of sample solution and 0.5 μl of matrix solution were mixed and placed on the laser target. [00179]

[3] = Rat quantitative tissue distribution (QTD) study; assay type: in vivo, Sprague-Dawley rats
Method: Quantitative tissue distribution studies were conducted to assess the tissue distribution of dalbavancin following a single IV infusion of dalbavancin to male rats.
All samples were analyzed by LSC.

[4] = test system: Miscellaneous Streptococcus and nontypeable strains; assay: Dalbavancin MIC of baseline isolates; assay type: cell-based

Chain of HSA (P02768 25-609): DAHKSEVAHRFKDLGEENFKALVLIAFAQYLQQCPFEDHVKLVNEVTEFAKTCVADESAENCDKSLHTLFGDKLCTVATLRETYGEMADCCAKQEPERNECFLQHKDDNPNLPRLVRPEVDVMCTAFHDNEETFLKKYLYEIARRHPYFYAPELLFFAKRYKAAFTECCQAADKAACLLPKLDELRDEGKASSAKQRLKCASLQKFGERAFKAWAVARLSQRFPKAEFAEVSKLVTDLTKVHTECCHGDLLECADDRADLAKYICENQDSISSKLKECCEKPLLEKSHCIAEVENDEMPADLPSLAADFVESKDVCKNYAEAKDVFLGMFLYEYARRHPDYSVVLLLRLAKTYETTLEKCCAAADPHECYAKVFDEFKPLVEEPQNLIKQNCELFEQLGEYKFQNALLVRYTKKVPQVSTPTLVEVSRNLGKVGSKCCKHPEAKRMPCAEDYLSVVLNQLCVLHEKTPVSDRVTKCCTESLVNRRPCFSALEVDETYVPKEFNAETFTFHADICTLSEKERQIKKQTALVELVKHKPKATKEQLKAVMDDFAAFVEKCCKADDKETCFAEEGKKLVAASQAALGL

Compound: CN[C@H]1C(=O)N[C@@H]2Cc3ccc(cc3)Oc3cc4cc(c3O[C@@H]3O[C@H](C(=O)O)[C@@H](O)[C@H](O)[C@H]3NC(=O)CCCCCCCCC(C)C)Oc3ccc(cc3Cl)[C@@H](O)[C@@H]3NC(=O)[C@H](NC(=O)[C@@H]4NC(=O)[C@@H](NC2=O)c2cc(cc(O)c2Cl)Oc2cc1ccc2O)c1ccc(O)c(c1)-c1c(O[C@H]2O[C@H](CO)[C@@H](O)[C@H](O)[C@@H]2O)cc(O)cc1[C@@H](C(=O)NCCCN(C)C)NC3=O [Dalbavancin]
- Change in dalbavancin MIC of isolates that persisted [1]: no change
- Clinically significant hepatotoxicity or nephrotoxicity ([2]; both dalbavancin regimens): no evidence
- Tolerability ([2]; both doses): well tolerated
- complex with HSA observed by MALDI-TOF (HSA): 2 molecules of dalbavancin per protein molecule
- dose recovered in the bile ([3]; bile duct cannulated rats, over 384 h after the dose): ~11%
- Concentrations of radioactivity in the CNS ([3]; healthy animal model): low but detectable
- time by which all tissues had quantifiable drug-derived radioactivity ([3]; post-infusion, 20 mg/kg IV): ≤ 12 h
- accumulation in tissue, organ or blood cellular component ([3]; rat, in vivo): did not accumulate
- skin concentrations of drug-derived radioactivity ([3]; relative to plasma): as high as or higher than in plasma
- Blood to plasma ratio of drug-derived radioactivity ([3]; relatively constant over time): < 1
- Dalbavancin MIC ([4]; MITT isolates of single-dose group): (0.016) mg/L
- Dalbavancin MIC ([4]; MITT isolates of standard of care group): (0.016) mg/L
- Dalbavancin MIC ([4]; MITT isolates of two-dose group): (0.016) mg/L

Reference: US20050004011A1, “Compositions and methods for treating bacterial infections with protein-dalbavancin complexes” (priority 2002, published 2005)
